Results from patent US20120052122A1, “Treatment Of Chronic Obstructive Pulmonary Disease With Phosphodiesterase-4 Inhibitor” (Nycomed GmbH, priority 2010, published 2012).
“And” between values parts separate entries of the source, which are not always exact repeats. Equal values may be shown once. Read-outs that look alike come from different tables or passages of the source.

Key:
rabbits = assay: Embryo-fetal development studies in rabbits; format: in vivo, rabbit; conditions: up to 0.8 mg/kg/day
[1] = Excretion into milk of lactating rats; format: in vivo, rat; conditions: roflumilast and/or its metabolites
Description: Excretion of roflumilast and/or metabolites into human milk is probable. Roflumilast should not be used during breast-feeding.

B6C3F1 mice = assay: Two year carcinogenicity study in B6C3F1 mice; format: in vivo, mouse; conditions: gavage up to 12 mg/kg/day (males), 18 mg/kg/day (females), two years
Description: (§1) No other treatment-related neoplastic findings were observed. Overall, the tumor-free level in the animals was 4 mg/kg/day.

hamster = assay: Two year hamster carcinogenicity studies; format: in vivo
Description: as §1

[2] = Standard battery of genotoxicity assays in vitro and in vivo
[3] = Non-clinical safety pharmacology and toxicity studies
Description: Non-clinical data reveal no special hazard for humans based on conventional studies of safety pharmacology and repeated dose toxicity. Furthermore, there is no evidence of immunotoxic, skin sensitizing or phototoxic potential.

[4] = system: patients with COPD and chronic cough and sputum production; conditions: in vivo
[5] = system: patients with COPD and chronic cough and sputum production
Description: Their postbronchodilator FEV1 was 50% or less than the predicted value.
Patients could use short acting β2 agonists as needed and could continue treatment with long acting β2 agonists or short acting anti-cholinergic drugs at stable doses. However, inhaled corticosteroids and long acting anti-cholinergic drugs were not allowed during the study. Eligible patients were stratified according to their use of long acting β2 agonists and smoking status.
The primary endpoints were the change in prebronchodilator FEV1 during treatment and the rate of COPD exacerbations, defined as moderate if they required treatment with oral or parenteral corticosteroids, or severe if they were associated with hospital admission or death. […] Additionally, data for the total number of COPD exacerbations (as defined above together with episodes treated with antibiotics alone) and a range of spirometric outcomes were gathered.
A negative binominal regression analysis was done to assess the robustness of the results against the distributional assumptions. Data were analyzed in the two studies separately and in a pooled analysis. Changes were analyzed from baseline in prebronchodilator and postbronchodilator FEV1 using a repeated-measures analysis of covariance with all data available for patients during the 52-week treatment. (Reference 18) A Cox proportional hazard model was used to test for differences in time-to-event data. For analysis of the concentrations of C-reactive protein, an analysis of covariance model was used, with the method of the last observation carried forward for the log-transformed data for concentrations. For the regression models (analysis of covariance, Cox, and Poisson), the covariates included treatment, age, sex, smoking status (current or former smoker), country, and treatment with long acting β2 agonists. In the Cox analysis, country was included as a stratum. In the Poisson regression analysis, baseline postbronchodilator FEV1 (% of predicted value) was also included as a covariate. To address the issue of multiple comparisons, a hierarchical hypothesis-testing approach was adopted, If the primary outcomes were positive, the key secondary outcomes were tested in the order above. If a significant difference between treatments was not obtained for the primary or key secondary outcomes, all subsequent analyses were considered exploratory.
In the one-year trials, long-acting beta-2 agonists (LABA) were allowed and used in approximately 50% of the study population. The use of inhaled corticosteroids was terminated at randomization. Lung function (pre-bronchodilator forced expiratory volume in one second, FEV1) and the rate of moderate exacerbations (requiring intervention with systemic glucocorticosteroids) or severe exacerbations (resulting in hospitalization and/or leading to death) were primary endpoints. Secondary endpoints in both studies included further evaluation of exacerbations and lung function parameters, dyspnea, and use of reliever medication.

[6] = system: CYP 1A2, 2A6, 2B6, 2C8, 2C9, 2C19, 2D6, 2E1, 3A4/5, or 4A9/11
patients with COPD [7] = conditions: Reference 13; cited from earlier work
[8] = system: unselected patients with severe COPD; conditions: Reference 14; cited from earlier work
[9] = system: human airway epithelial cells; assay: MUC5AC formation; conditions: human airway epithelial cells and animal experiments
CYP 2B6 = CYP 2B6 induction in vitro
[10] = system: bronchial ciliary activity; assay: Bronchial ciliary activity in vitro
patients with COPD [11] = assay: Sputum cell counts in patients with COPD
[12] = system: endotoxin challenged healthy volunteers; assay: Endotoxin challenge in healthy volunteers
[13] = Pharmacokinetics in special populations (total PDE4 inhibitory activity); conditions: in vivo
[14] = system: patients with COPD and chronic cough and sputum production; assay: M2-125 study: 52-week placebo-controlled trial of oral roflumilast 500 μg once a day
[15] = M2-124 and M2-125 pooled, 52 weeks
[16] = M2-124 and M2-125 pooled, 52 weeks, mean
[17] = M2-124 and M2-125 pooled, 52 weeks, mean (SE)
[18] = M2-124 and M2-125 pooled, Roflumilast vs Placebo
[19] = M2-124 and M2-125 pooled, Roflumilast vs Placebo, listed as roflumilast

## O=C(Nc1c(Cl)cncc1Cl)c1ccc(OC(F)F)c(OCC2CC2)c1 [Roflumilast, N-(3,5-dichloropyridin-4-yl)-3-cyclopropylmethoxy-4-difluoromethoxy-benzamide]
rabbits; oral
  Teratogenicity: not teratogenic
rabbits
  Post-implantive losses: not seen
[1]
  Excretion into milk: excreted into the milk
B6C3F1 mice
  Tumors: No compound-related tumors
hamster; hamster, up to 16 mg/kg/day, two year
  Neoplastic findings: nasal neoplasms were caused by a drug metabolite, which is absent in humans
hamster; overall
  Tumor-free level in the animals: 4 mg/kg/day
[2]
  Genotoxic potential: did not reveal a genotoxic potential
[3]
  Immunotoxic, skin sensitizing or phototoxic potential: no evidence
[4]; human, 52 weeks
  Adverse event Upper respiratory tract infection, patients: 33 (4%) number (%)
[4]
  Occurrence of rhythm disturbances vs placebo: no difference
[5]; M2-124 and M2-125 pooled
  Change in C-reactive protein from baseline to last postrandomisation visit: 1.1; n = 1371 mg/L
  Median time to first exacerbation (moderate or severe) [IQR]: 80.0 (28.0-190.0) days
  Median time to second exacerbation (moderate or severe) [IQR]: 177.0 (92.0-262.0) days
  Time to mortality (mean, SD): 206.1 days
[5]; [15]
  Exacerbations moderate or severe, mean rate [95% CI]: 1.14 (1.05-1.24); per patient, per year
  Exacerbations moderate, mean rate [95% CI]: 0.99 (0.91-1.08); per patient, per year
  Exacerbations severe, mean rate [95% CI]: 0.12 (0.10-0.16); per patient, per year
  Exacerbations treated with systemic corticosteroids, antibiotics, or both, mean rate [95% CI]: 1.13 (1.04-1.23); per patient, per year
[5]; [16]
  Change in postbronchodillator FEV1/FVC: 0.517%
  Change in prebronchodillator FEV1/FVC: 0.247%
[5]; [17]
  Change in postbronchodillator FEF25-75: 21 (4); mL/s
  Change in postbronchodillator FEV1: 50 (6); mL
  Change in postbronchodillator FVC: 67 (10); mL
  Change in postbronchodillator PEF: 4.93 (1.05); L/min
  Change in prebronchodillator FEF25-75: 16 (4); mL/s
  Change in prebronchodillator FEV1: 40 (6); mL
  Change in prebronchodillator FVC: 64 (10); mL
  Change in prebronchodillator PEF: 3.69 (1.02); L/min
[5]; [18]
  Change in C-reactive protein from baseline to last postrandomisation visit, difference: Difference 1.0 mg/L
  Change in postbronchodillator FEF25-75, difference: Difference 19 mL/s
  Change in postbronchodillator FEV1, difference: Difference 55 mL
  Change in postbronchodillator FEV1/FVC, difference: Difference 0.426%
  Change in postbronchodillator FVC, difference: Difference 101 mL
  Change in postbronchodillator PEF, difference: Difference 4.72 L/min
  Change in prebronchodillator FEF25-75, difference: Difference 20 mL/s
  Change in prebronchodillator FEV1, difference: Difference 48 mL
  Change in prebronchodillator FEV1/FVC, difference: Difference 0.393%
  Change in prebronchodillator FVC, difference: Difference 98 mL
  Change in prebronchodillator PEF, difference: Difference 3.53 L/min
  EQ-5D total score, difference: 0.0023
  TDI focal score, difference: Difference 0.3
[5]; [19]
  Change in postbronchodillator FEV1, difference: 55 mL
  Change in prebronchodillator FEV1, difference: 48 mL
  TDI focal score, difference: 0.25
[5]; M2-124 and M2-125 pooled, mean
  EQ-5D total score: 0.0072
[5]; M2-124 and M2-125 pooled, mean (SE)
  TDI focal score: 0.7 (0.1);
[5]; human, in vivo
  Probability of withdrawal due to adverse events in the first 12 weeks: 8%
  Subsequent probability of withdrawal because of adverse events: 9%
[5]; human, in vivo, 52 weeks
  Adverse events reported, patients: 1040 (67%) number (%)
  Atrial fibrillation, patients: 17 (1%) number (%)
  Discontinuations associated with adverse events: 219 [14%] number [%]
  Reported cardiovascular adverse events: 108 [7%] number [%]
  Serious adverse events reported, patients: 301 (19%) number (%)
  Vomiting, patients: 17 (1%) number (%)
[5]; in vivo
  Incidence of pneumonia or other pulmonary infections: did not increase
  Mean absolute weight change over the 1-year period: -2.1 kg
  Neurological or cardiac toxicity: No significant neurological or cardiac toxicity
  Patients with a decrease of body weight: 62%
  Weight loss in patients not reporting diarrhea, nausea, vomiting, or headache: 2.02 kg
  Weight loss in patients reporting diarrhea, nausea, vomiting, or headache: 2.60 kg
[5]; pooled
  Number of patients experiencing a moderate exacerbation: 624
  Number of patients experiencing a severe exacerbation: 157
[5]; pooled analysis
  Estimated rate of moderate or severe exacerbations per patient per year, lower than placebo: 17%
  Exacerbations (excluding severe events) requiring systemic corticosteroids or antibiotics, or both, reduction vs placebo: 16%
[5]; pooled, compared to placebo, concomitant LABA
  Mean prebronchodilator FEV1 increase with long acting β2 agonist: 46 mL
[5]; pooled, compared to placebo, no concomitant LABA
  Mean prebronchodilator FEV1 increase without long acting β2 agonist: 50 mL
[6]
  Inhibition of CYP 1A2, 2A6, 2B6, 2C8, 2C9, 2C19, 2D6, 2E1, 3A4/5, or 4A9/11: do not inhibit
Patients with COPD [7]
  Airway inflammation, sputum neutrophil and eosinophil counts: reduces airway inflammation
[8]
  Frequency of exacerbations: did not significantly reduce
[9]
  Formation of MUC5AC: inhibited
CYP 2B6
  Induction of CYP 2B6: weak induction
[10]
  Bronchial ciliary activity: stimulated
Patients with COPD [11]
  Sputum neutrophils: reduced
[12]
  Influx of neutrophils and eosinophils into the airways: attenuated
[13]
  Total PDE4 inhibitory activity in smokers: slightly decreased
  Total PDE4 inhibitory activity in the elderly: increased
  Total PDE4 inhibitory activity in women compared with men: increased
[14]
  Change in C-reactive protein from baseline to last postrandomisation visit: 1.1; n = 680 mg/L
  Median time to first exacerbation (moderate or severe) [IQR]: 73.0 (26.0-195.0); days
  Median time to second exacerbation (moderate or severe) [IQR]: 188.0 (84.0-281.0) days
  Number of patients needed to treat to prevent one moderate or severe exacerbation per year: 3.6 and 3.64
  Time to mortality (mean, SD): 201.0 days
[14]; 52 weeks
  Exacerbations moderate or severe, mean rate [95% CI]: 1.21 (1.07-1.36); per patient, per year
  Exacerbations moderate, mean rate [95% CI]: 1.04 (0.92-1.18); per patient, per year
  Exacerbations severe, mean rate [95% CI]: 0.14 (0.10-0.20); per patient, per year
  Exacerbations treated with systemic corticosteroids, antibiotics, or both, mean rate [95% CI]: 1.17 (1.04-1.31); per patient, per year
[14]; 52 weeks, mean
  Change in postbronchodillator FEV1/FVC: 0.552%
  Change in prebronchodillator FEV1/FVC: 0.200%
[14]; 52 weeks, mean (SE)
  Change in postbronchodillator FEF25-75: 21 (5); n = 724 mL/s
  Change in postbronchodillator FEV1: 44 (7); n = 724 mL
  Change in postbronchodillator FVC: 58 (13); mL
  Change in postbronchodillator PEF: 1.93 (1.49); L/min
  Change in prebronchodillator FEF25-75: 15 (5); n = 730 mL/s
  Change in prebronchodillator FEV1: 33 (7); n = 730 mL
  Change in prebronchodillator FVC: 60 (14); mL
  Change in prebronchodillator PEF: 0.75 (1.45); L/min
[14]; Roflumilast vs Placebo
  Adverse event Influenza, difference: −0.99% (−2.51 to 0.53)
  Adverse event Upper respiratory tract infection, difference: −0.57% (−2.75 to 1.62)
  Change in C-reactive protein from baseline to last postrandomisation visit, difference: Difference 1.1 mg/L
  Change in postbronchodillator FEF25-75, difference: Difference 29 (18 mL/s
  Change in postbronchodillator FEV1, difference: Difference 61 (44 mL
  Change in postbronchodillator FEV1/FVC, difference: Difference 0.668%
  Change in postbronchodillator FVC, difference: Difference 103 mL
  Change in postbronchodillator PEF, difference: Difference 5.07 L/min
  Change in prebronchodillator FEF25-75, difference: Difference 25 (13 mL/s
  Change in prebronchodillator FEV1, difference: Difference 58 (41 mL
  Change in prebronchodillator FEV1/FVC, difference: Difference 0.510%
  Change in prebronchodillator FVC, difference: Difference 108 mL
  Change in prebronchodillator PEF, difference: Difference 3.85 L/min
  EQ-5D total score, difference: Difference 0.0106
  TDI focal score, difference: Difference 0.3
[14]; Roflumilast vs Placebo, listed as roflumilast
  Change in prebronchodillator FVC, difference: 108 mL
[14]; mean
  EQ-5D total score: 0.0100
[14]; mean (SE)
  TDI focal score: 0.7 (0.1);
[14]; n = 778
  Adverse event Influenza, patients: 12 (2%) number (%)
